In patent publication US20230135729A1, “COMPOUND WITH ANTI-SPORE ACTIVITY AND PHARMACEUTICAL COMPOSITION THEREOF” (priority 2020, published 2023) one finds MIC data, which are given here for seven compounds.

What all share (format): cell-based
The subject of assay [1] is various C. difficile spores. Briefly: Inhibition of germination of C. difficile spores, summary over the strains. Particulars: Clostridioides difficile; Table 1, all strains. Here is the method: According to a method disclosed in “The Journal of Infectious Diseases. 2013; 207: 1498-504”, spores of ATCC BBA1870, ATCC 43255 and ATCC 630 strains were obtained by culture and purification, and stored at 4° C.
Spore preparation: the C. difficile spores stored at 4° C. were heat-activated for 30 min at 65° C., centrifuged at 9,400 g for 2 min, and washed three times to remove any self-germinating spores.
Control drug: three cholic acid derivatives, a compound CamSA, a compound 20β (prepared by the method of “Journal of Medicinal Chemistry. 2017, 60 (8): 3451-3471”), and a compound 12a (prepared by the method of “Journal of Medicinal Chemistry. 2018, 61, 6759-6778”), were used as control drugs.
Compound preparation: the compound of the present disclosure, and the positive control drugs CamSA, 20β, and 12a were dissolved in DMSO, to prepare a stock solution with a concentration of 10 mM (prepared for immediate use).
The detection was conducted in a 96-well cell culture plate at a constant temperature of 37° C.; a final volume of each well of the 96-well plate was […] and a buffer was the BHIS medium; 150 μl of spores and drugs were added to the well in advance, and 50 μl of 4 mg/ml sodium taurocholate was added; OD580 was detected every 1 min immediately using a microplate reader, for continuously 60 min. A germination agent control group and a non-germination group were set up; after the detection, a final OD value of each well was compared with an initial value, and compared with the germination agent group to calculate a germination rate and an inhibition rate. A formula for the germination rate was:
Inhibition rate=100%−germination rate.

The test system of assay [2] is spores of ATCC BBA1870 strain. Briefly: Inhibition of germination of C. difficile spores (MIC), strain ATCC BBA1870. As to conditions: Clostridioides difficile, ATCCBBA1870STRAIN, 1 h; strain 1870; sodium taurocholate as germinant, BHIS medium, 37° C., OD580 for 60 min; read-out: MIC (minimum concentration that completely inhibits spore germination). The essentials: (§1)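 Germination was followed as the drop in OD580 over 60 min at 37° C in BHIS after adding sodium taurocholate to spores premixed with compound. Spores were first heat-activated (65° C, 30 min) and washed free of self-germinating spores. The inhibition rate was calculated against germinant and non-germinant controls.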

The test system of assay [3] is spores of ATCC 630 strain. The assay can be described thus: Inhibition of germination of C. difficile spores (MIC), strain ATCC 630. Particulars: Clostridioides difficile, ATCC630, 1 h; strain 630; sodium taurocholate as germinant, BHIS medium, 37° C., OD580 for 60 min; read-out: MIC (minimum concentration that completely inhibits spore germination). The method, boiled down: as §1

For assay [4], the system named is spores of ATCC 43255 strain. Briefly: Inhibition of germination of C. difficile spores (MIC), strain ATCC 43255. As to conditions: Clostridioides difficile, ATCC43255, 1 h; strain 43255; sodium taurocholate as germinant, BHIS medium, 37° C., OD580 for 60 min; read-out: MIC (minimum concentration that completely inhibits spore germination). The method, boiled down:
as §1

Converted amounts (≈) assume the structure as drawn. Some results are limits rather than exact numbers.

Regarding `CC(NC(=O)C[C@@H](C)[C@H]1CC[C@H]2[C@@H]3C(=O)C[C@@H]4CC(=O)CC[C@]4(C)[C@H]3CC[C@]12C)c1ccc(Cl)s1` (stereo partly shown) [Compound I-32], the MIC in assay [1] was at most 1 µM; in assay [2] it was 0.5 µM (≈ 0.259 µg/mL); in assay [3], 0.5 µM (≈ 0.259 µg/mL); in assay [4] it was 0.5 µM (≈ 0.259 µg/mL).
Turning to `CCC(NC(=O)C[C@@H](C)[C@H]1CC[C@H]2[C@@H]3C(=O)C[C@@H]4CC(=O)CC[C@]4(C)[C@H]3CC[C@]12C)c1cccs1` (stereo partly shown) [Compound I-35], the MIC in assay [1] was at most 1 µM; in assay [2], 0.5 µM (≈ 0.249 µg/mL); in assay [3] it was 0.5 µM (≈ 0.249 µg/mL); in assay [4] it was 0.5 µM (≈ 0.249 µg/mL).
Regarding `CC[C@@H](NC(=O)C[C@@H](C)[C@H]1CC[C@H]2[C@@H]3C(=O)C[C@@H]4CC(=O)CC[C@]4(C)[C@H]3CC[C@]12C)c1cccs1` [Compound I-37], the MIC is at most 1 µM in assay [1], 0.25 µM (≈ 0.124 µg/mL) in assay [2], 0.25 µM (≈ 0.124 µg/mL) in assay [3] and 0.25 µM (≈ 0.124 µg/mL) in assay [4].
`CCCC(NC(=O)C[C@@H](C)[C@H]1CC[C@H]2[C@@H]3C(=O)C[C@@H]4CC(=O)CC[C@]4(C)[C@H]3CC[C@]12C)c1cccs1` (stereo partly shown) [Compound I-41]: the MIC was at most 1 µM in assay [1], 0.5 µM (≈ 0.256 µg/mL) in assay [2], 0.5 µM (≈ 0.256 µg/mL) in assay [3] and 0.5 µM (≈ 0.256 µg/mL) in assay [4].
For the compound `C[C@H](CC(=O)NC(c1cccs1)C1CC1)[C@H]1CC[C@H]2[C@@H]3C(=O)C[C@@H]4CC(=O)CC[C@]4(C)[C@H]3CC[C@]12C` (stereo partly shown) [Compound I-48], the MIC is at most 1 µM in assay [1], 0.5 µM (≈ 0.255 µg/mL) in assay [2], 0.5 µM (≈ 0.255 µg/mL) in assay [3] and 0.5 µM (≈ 0.255 µg/mL) in assay [4].
With `C[C@H](CC(=O)N[C@@H](c1cccs1)C1CC1)[C@H]1CC[C@H]2[C@@H]3C(=O)C[C@@H]4CC(=O)CC[C@]4(C)[C@H]3CC[C@]12C` [Compound I-50], the MIC was at most 1 µM in assay [1], 0.25 µM (≈ 0.127 µg/mL) in assay [2], 0.25 µM (≈ 0.127 µg/mL) in assay [3] and 0.25 µM (≈ 0.127 µg/mL) in assay [4].
Turning to `C[C@H](CC(=O)NC(c1ccc(Cl)s1)C1CC1)[C@H]1CC[C@H]2[C@@H]3C(=O)C[C@@H]4CC(=O)CC[C@]4(C)[C@H]3CC[C@]12C` (stereo partly shown) [Compound I-51], the MIC is at most 1 µM in assay [1], 0.5 µM (≈ 0.272 µg/mL) in assay [2], 0.5 µM (≈ 0.272 µg/mL) in assay [3] and 0.5 µM (≈ 0.272 µg/mL) in assay [4].
